{
  "source": "patent US20150045410A1",
  "about": "“METHOD OF REGULATING CFTR EXPRESSION AND PROCESSING” (University of Iowa Research Foundation, priority 2012, published 2015)",
  "molecular_target": "T1, CFTR-ΔF508 (Homo sapiens, UniProt P13569, DEL508-508)",
  "T1 construct": "expressed in transfected cells",
  "T1 sequence (P13569 with tags, fused parts or gaps DEL508-508)": "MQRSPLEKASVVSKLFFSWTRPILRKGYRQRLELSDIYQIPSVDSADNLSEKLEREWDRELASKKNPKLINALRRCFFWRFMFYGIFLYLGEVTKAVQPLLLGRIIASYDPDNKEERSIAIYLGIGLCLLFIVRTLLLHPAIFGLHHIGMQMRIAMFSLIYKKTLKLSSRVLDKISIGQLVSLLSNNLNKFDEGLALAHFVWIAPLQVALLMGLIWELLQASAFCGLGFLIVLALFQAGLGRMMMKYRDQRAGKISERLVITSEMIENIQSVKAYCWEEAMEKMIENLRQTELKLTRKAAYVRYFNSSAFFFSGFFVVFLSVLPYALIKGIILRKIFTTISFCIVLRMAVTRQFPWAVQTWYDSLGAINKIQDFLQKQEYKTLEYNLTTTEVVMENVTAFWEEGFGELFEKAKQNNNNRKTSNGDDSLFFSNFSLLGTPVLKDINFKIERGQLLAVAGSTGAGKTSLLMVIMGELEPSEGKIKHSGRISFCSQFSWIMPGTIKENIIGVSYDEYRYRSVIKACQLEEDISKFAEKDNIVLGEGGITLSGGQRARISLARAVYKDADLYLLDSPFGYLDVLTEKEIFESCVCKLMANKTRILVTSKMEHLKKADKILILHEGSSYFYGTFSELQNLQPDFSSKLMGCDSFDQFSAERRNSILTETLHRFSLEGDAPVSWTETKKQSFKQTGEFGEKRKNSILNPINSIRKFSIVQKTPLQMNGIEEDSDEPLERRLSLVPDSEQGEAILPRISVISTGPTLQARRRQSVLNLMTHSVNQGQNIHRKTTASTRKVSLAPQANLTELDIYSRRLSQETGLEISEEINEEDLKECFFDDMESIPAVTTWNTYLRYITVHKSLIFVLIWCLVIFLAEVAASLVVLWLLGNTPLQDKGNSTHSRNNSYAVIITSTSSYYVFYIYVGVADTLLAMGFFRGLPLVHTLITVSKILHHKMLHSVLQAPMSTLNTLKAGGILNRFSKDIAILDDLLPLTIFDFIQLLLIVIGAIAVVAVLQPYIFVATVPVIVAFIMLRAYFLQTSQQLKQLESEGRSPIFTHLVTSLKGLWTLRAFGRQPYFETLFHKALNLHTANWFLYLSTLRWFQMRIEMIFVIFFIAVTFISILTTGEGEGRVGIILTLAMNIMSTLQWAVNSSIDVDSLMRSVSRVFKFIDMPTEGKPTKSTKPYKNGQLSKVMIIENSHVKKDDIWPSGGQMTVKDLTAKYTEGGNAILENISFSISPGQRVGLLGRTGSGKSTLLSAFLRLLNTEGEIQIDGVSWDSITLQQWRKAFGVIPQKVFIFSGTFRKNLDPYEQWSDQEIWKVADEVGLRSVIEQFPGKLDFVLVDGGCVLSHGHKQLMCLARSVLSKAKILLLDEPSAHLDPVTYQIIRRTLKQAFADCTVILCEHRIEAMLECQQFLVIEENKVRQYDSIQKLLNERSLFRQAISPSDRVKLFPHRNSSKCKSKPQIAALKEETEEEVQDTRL",
  "test": "Cell surface ELISA (anti-HA) in HeLa cells stably expressing HA-tagged CFTR-ΔF508",
  "type": "cell-based",
  "settings": "for mutant CFTR at the cell surface (ELISA): HeLa cells, CFTR-ΔF508-3HA under CMV promoter, oligonucleotide transfection, 6, 12, 24 hrs; for surface display of ΔF508-CFTR (live cell-surface ELISA): HeLa-ΔF508-CFTR-HA cells treated daily with drugs, 72 hr post-treatment, vs DMSO (FIG. 28, 29)",
  "data": [
    {"compound": "SIN3A DsiRNA: Dicer-substrate siRNA against SIN3A, sense SEQ ID NO: 6, antisense SEQ ID NO: 7 (sense GCGAUACAUGAAUUCAGAUACUACC; antisense GGUAGUAUCUGAAUUCAUGUAUCGCUC; chemistry not given here)", "values": [
      {"measurement": "mutant CFTR at the cell surface (ELISA)", "result": "mutant CFTR reached the cell surface"}
    ]},
    {"compound": "COc1cc2ncnc(Nc3cccc(Cl)c3)c2cc1OC", "note": "[Tyrophostin (AG-1478), N-(3-chlorophenyl)-6,7-dimethoxy-4-quinazolinamine]", "values": [
      {"measurement": "surface display of ΔF508-CFTR (live cell-surface ELISA)", "result": "increased"}
    ]},
    {"compound": "miR-138 mimic: synthetic modified RNA duplex, sense SEQ ID NO: 4, antisense SEQ ID NO: 5, showing miR-138-like activity", "values": [
      {"measurement": "mutant CFTR at the cell surface (ELISA)", "result": "mutant CFTR reached the cell surface"}
    ]},
    {"compound": "CN1CCC(=C2c3ccccc3CCc3sccc32)CC1", "note": "[Pizotifen, 4-(1-methyl-4-piperidylidine)-9, 1 0-dihydro-4H-benzo-[4,5]cyclohepta[1,2]-thiophene]", "values": [
      {"measurement": "surface display of ΔF508-CFTR (live cell-surface ELISA)", "result": "increased"}
    ]},
    {"compound": "O[C@](CCN1CCCCC1)(c1ccccc1)[C@H]1CC2C=CC1C2", "note": "(mixture of isomers) [Biperiden]", "values": [
      {"measurement": "surface display of ΔF508-CFTR (live cell-surface ELISA)", "result": "increased"}
    ]}
  ]
}
